The text below walks through data of patent publication US7414060B2, “Pyridine-2-carboxyamide derivatives” (Hoffmann-La Roche Inc., priority 2005, dated 2008).

The target in the assay is T1, human mGlu 5a receptor (Homo sapiens, UniProt P41594).
T1 construct: expressed in transfected cells; host or cells: EBNA cells (transient transfection), cell membrane homogenates
Description: [3H]MPEP competition binding on membranes of EBNA cells transfected with human mGlu 5a receptor. The following applies: competition with [3H]MPEP (2 nM), 1 h at 4° C., human mGlu 5a receptor membranes; read-out: Ki (mGluR5). The protocol:
The pharmacological activity of the compounds was tested using the following method: For binding experiments, cDNA encoding human mGlu 5a receptor was transiently transfected into EBNA cells using a procedure described by Schlaeger and Christensen [Cytotechnology 15:1-13 (1998)]. Cell membrane homogenates were stored at −80° C. until the day of assay where upon they were thawed and resuspended and polytronized in 15 mM Tris-HCl, 120 mM NaCl, 100 mM KCl, 25 mM CaCl2, 25 mM MgCl2 binding buffer at pH 7.4 to a final assay concentration of 20 μg protein/well.
Saturation isotherms were determined by addition of twelve [^3H]MPEP concentrations (0.04-100 nM) to these membranes (in a total volume of 200 μl) for 1 h at 4° C. Competition experiments were performed with a fixed concentration of [^3H]MPEP (2 nM), and IC50 values of test compounds evaluated using 11 concentrations (0.3-10,000 nM). Incubations were performed for 1 h at 4° C.
At the end of the incubation, membranes were filtered onto unifilter (96-well white microplate with bonded GF/C filter preincubated 1 h in 0.1% PEI in wash buffer, Packard Bio-Science, Meriden, Conn.) with a Filtermate 96 harvester (Packard BioScience) and washed 3 times with cold 50 mM Tris-HCl, pH 7.4 buffer. Nonspecific binding was measured in the presence of 10 μM MPEP. The radioactivity on the filter was counted (3 min) on a Packard Top-count microplate scintillation counter with quenching correction after addition of 45 μl of microscint 40 (Canberra Packard S. A., Zürich, Switzerland) and shaking for 20 min.
The inhibition (antagonists) curves were fitted with a four parameter logistic equation giving IC50, and Hill coefficient using iterative non linear curve fitting software (Xcel fit).
For binding experiments the Ki values of the compounds tested are given. The Ki value is defined by the following formula: Ki=IC50/[1+L/Kd] in which the IC50 values are those concentrations of the compounds tested which cause 50% inhibition of the competing radioligand ([^3H]MPEP). L is the concentration of radioligand used in the binding experiment and the Kd value of the radioligand is empirically determined for each batch of membranes prepared.

T1 sequence (P41594 21-1180 isoform P41594-2 limits assumed): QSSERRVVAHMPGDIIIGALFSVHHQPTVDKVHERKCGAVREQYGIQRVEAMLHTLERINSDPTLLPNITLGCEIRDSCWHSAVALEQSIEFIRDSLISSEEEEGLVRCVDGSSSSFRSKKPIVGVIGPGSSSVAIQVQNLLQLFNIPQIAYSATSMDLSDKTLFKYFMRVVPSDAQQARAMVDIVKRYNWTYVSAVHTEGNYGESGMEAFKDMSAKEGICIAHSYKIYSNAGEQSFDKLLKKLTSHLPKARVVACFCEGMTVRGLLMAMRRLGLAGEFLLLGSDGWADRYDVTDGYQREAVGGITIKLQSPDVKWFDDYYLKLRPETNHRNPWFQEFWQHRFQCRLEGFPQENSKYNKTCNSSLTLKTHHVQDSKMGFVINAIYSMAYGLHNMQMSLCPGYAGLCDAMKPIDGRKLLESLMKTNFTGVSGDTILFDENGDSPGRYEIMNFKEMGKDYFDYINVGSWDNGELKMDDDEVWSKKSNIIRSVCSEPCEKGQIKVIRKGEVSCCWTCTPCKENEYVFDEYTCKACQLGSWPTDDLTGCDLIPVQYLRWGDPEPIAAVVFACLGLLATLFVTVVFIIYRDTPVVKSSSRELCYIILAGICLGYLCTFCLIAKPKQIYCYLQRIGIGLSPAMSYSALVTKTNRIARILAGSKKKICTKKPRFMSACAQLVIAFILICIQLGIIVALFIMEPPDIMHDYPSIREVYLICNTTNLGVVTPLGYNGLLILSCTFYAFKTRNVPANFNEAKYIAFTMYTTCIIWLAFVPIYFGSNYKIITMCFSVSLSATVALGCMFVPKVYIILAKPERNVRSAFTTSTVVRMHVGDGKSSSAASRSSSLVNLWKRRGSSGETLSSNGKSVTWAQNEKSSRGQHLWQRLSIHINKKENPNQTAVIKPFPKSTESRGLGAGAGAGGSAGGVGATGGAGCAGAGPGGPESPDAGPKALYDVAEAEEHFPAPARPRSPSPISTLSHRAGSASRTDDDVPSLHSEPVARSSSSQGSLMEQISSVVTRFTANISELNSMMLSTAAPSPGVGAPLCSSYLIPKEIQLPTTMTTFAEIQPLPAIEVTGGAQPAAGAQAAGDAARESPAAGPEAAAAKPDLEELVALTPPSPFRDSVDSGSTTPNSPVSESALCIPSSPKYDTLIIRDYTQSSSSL

In the case of `Cc1ccc(Nc2cccnc2)c(C(=O)Nc2ccn(C)n2)n1` [Example 16, 6-Methyl-3-(pyridin-3-ylamino)-pyridine-2-carboxylic acid (1-methyl-1H-pyrazol-3-yl)-amide], the Ki amounted to 27 nM.

For the compound `Cc1ccc(Nc2cccc(C#N)c2)c(C(=O)Nc2nc(C(F)(F)F)cs2)n1` [Example 60, 3-(3-Cyano-phenylamino)-6-methyl-pyridine-2-carboxylic acid (4-trifluoromethyl-thiazol-2-yl)-amide], the Ki turned out to be 367 nM.

`Cc1cc(NC(=O)c2nc(C)ccc2Nc2cncc(C#N)c2)ccn1` [Example 22, 3-(5-Cyano-pyridin-3-ylamino)-6-methyl-pyridine-2-carboxylic acid (2-methyl-pyridin-4-yl)-amide]: the Ki was found to be 66 nM.

Consider `Cc1ccc(Nc2cc(C3CC3)nn2C)c(C(=O)Nc2ccc(F)c(C)n2)n1` [Example 103, 3-(5-Cyclopropyl-2-methyl-2H-pyrazol-3-ylamino)-6-methyl-pyridine-2-carboxylic acid (5-fluoro-6-methyl-pyridin-2-yl)-amide], for which the inhibitory constant (Ki) came to 14 nM.

With `Cc1csc(NC(=O)c2nc(C)ccc2Nc2cccnc2)n1` [Example 14, 6-Methyl-3-(pyridin-3-ylamino)-pyridine-2-carboxylic acid (4-methyl-thiazol-2-yl)-amide], the Ki amounted to 28 nM. The value for `Cc1ccc(Nc2cncnc2)c(C(=O)Nc2cccc(Cl)c2)n1` [Example 2, 6-Methyl-3-(pyrimidin-5-ylamino)-pyridine-2-carboxylic acid (3-chloro-phenyl)-amide] was 30 nM; that for `Cc1ccc(Nc2cncnc2)c(C(=O)Nc2ncc(C)s2)n1` [Example 106, 6-Methyl-3-(pyrimidin-5-ylamino)-pyridine-2-carboxylic acid (5-methyl-thiazol-2-yl)-amide] was 56 nM; that for `Cc1ccc(Nc2cccnc2)c(C(=O)Nc2ccnc(Cl)c2)n1` [Example 4, 6-Methyl-3-(pyridin-3-ylamino)-pyridine-2-carboxylic acid (2-chloro-pyridin-4-yl)-amide] was 42 nM. The value for `Cc1ccc(Nc2cccnc2)c(C(=O)Nc2ccc(F)cn2)n1` [Example 8, 6-Methyl-3-(pyridin-3-ylamino)-pyridine-2-carboxylic acid (5-fluoro-pyridin-2-yl)-amide] was 21 nM.

On to `Cc1ccc(Nc2ccnn2C)c(C(=O)Nc2csc(C)n2)n1` [Example 92, 6-Methyl-3-(2-methyl-2H-pyrazol-3-ylamino)-pyridine-2-carboxylic acid (2-methyl-thiazol-4-yl)-amide], for which the Ki is 10 nM.

On to “6-Methyl-3-(1-methyl-1H-pyrazol-4-ylamino)-pyridine-2-carboxylic acid (5-fluoro-pyridin-2-yl)-amide [Example 96]”, for which the inhibitory constant (Ki) stood at 57 nM.

Consider `Cc1ccc(Nc2cccc(F)c2)c(C(=O)Nc2ccc(F)c(C)n2)n1` [Example 54, 3-(3-Fluoro-phenylamino)-6-methyl-pyridine-2-carboxylic acid (5-fluoro-6-methyl-pyridin-2-yl)-amide], for which the Ki is 55 nM. The result for `Cc1ccc(Nc2cccnc2)c(C(=O)Nc2nc(C(F)(F)F)cs2)n1` [Example 18, 6-Methyl-3-(pyridin-3-ylamino)-pyridine-2-carboxylic acid (4-trifluoromethyl-thiazol-2-yl)-amide] reads 78 nM. The value for `Cc1ccc(Nc2cncc(C(F)(F)F)c2)c(C(=O)Nc2ccn(C)n2)n1` [Example 51, 6-Methyl-3-(5-trifluoromethyl-pyridin-3-ylamino)-pyridine-2-carboxylic acid (1-methyl-1H-pyrazol-3-yl)-amide] was 82 nM.

Broadly, the Ki is the equilibrium dissociation constant of an inhibitor or competing ligand from its target.
